Columns and labels:
[1] = target: T1, Leukotriene B4 receptor 1 (Homo sapiens, UniProt Q15722); experiment: Compound was evaluated for inhibitory activity against LTB4 receptor in human neutrophil membranes using [3H]- LTB4 as radioligand; format: cell membranes
[2] = target: T1, Leukotriene B4 receptor 1; experiment: Compound was evaluated for relative binding affinity against LTB4 receptor in human neutrophil membranes using [3H]- LTB4 as radioligand relative to leukotriene B4; format: cell membranes

T1 sequence (Q15722 whole entry): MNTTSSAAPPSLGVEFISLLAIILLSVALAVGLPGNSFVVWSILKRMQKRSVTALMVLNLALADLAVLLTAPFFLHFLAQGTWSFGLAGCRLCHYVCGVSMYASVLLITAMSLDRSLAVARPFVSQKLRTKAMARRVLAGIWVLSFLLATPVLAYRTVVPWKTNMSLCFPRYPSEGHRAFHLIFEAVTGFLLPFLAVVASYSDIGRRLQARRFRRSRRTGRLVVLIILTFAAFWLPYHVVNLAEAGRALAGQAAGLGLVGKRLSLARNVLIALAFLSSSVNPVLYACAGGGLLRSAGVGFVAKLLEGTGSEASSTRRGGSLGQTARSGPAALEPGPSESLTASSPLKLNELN

IC50 [1] [µM] | relative binding affinity (RBA) [2] | SMILES
70 |  | CCCCCC(O)/C=C/[C@H]1CCC[C@@](O)(CCCC(=O)O)C1 (stereo not given in full)
8 | 0.001 | CCCCCC(O)/C=C/[C@H]1CCC[C@@](O)(CC(=O)O)C1 (stereo not given in full)
1 | 0.008 | CCCCCCCCC(O)/C=C/[C@H]1CCC[C@@](O)(CC(=O)O)C1 (stereo not given in full)
0.3 |  | O=C(O)C[C@]1(O)CCC[C@H](/C=C/C(O)CCCCc2ccccc2)C1 (stereo in doubt; 1d1) [listing 1 of 2 here]
 | 0.025 | O=C(O)C[C@]1(O)CCC[C@H](/C=C/C(O)CCCCc2ccccc2)C1 (stereo in doubt; 1d1) [listing 2 of 2 here]
70 |  | O=C(O)C[C@]1(O)CCC[C@H](/C=C/C(O)CCCCc2ccccc2)C1 (stereo in doubt; 1d2)
0.8 |  | O=C(O)C[C@]1(O)CCC[C@H](/C=C/C(O)CCCCc2ccccc2)C1 (stereo in doubt; 1d) [listing 1 of 2 here]
 | 0.01 | O=C(O)C[C@]1(O)CCC[C@H](/C=C/C(O)CCCCc2ccccc2)C1 (stereo in doubt; 1d) [listing 2 of 2 here]

Source: ChEMBL document CHEMBL1129702, “Synthesis and pharmacological profile of new 1,3-disubstituted cyclohexanes as leukotriene B4 receptor antagonists” (Bioorg Med Chem Lett, 1996)
